Experimental findings from patent US10927104B2, “Ether compounds and uses thereof” (BioTheryX, Inc., priority 2017, dated 2021) are described below.

Holding throughout (type): cell-based
The test system of one test is IL-2. Description: Anti-CD3-induced IL-2 secretion in PBMCs (Mesoscale). The following applies: Homo sapiens, PBMC, anti-CD3 stimulated PBMCs, 24 hr, vs DMSO control, read-out: IL-2 Fold Change; for fold induction at 0.1 µM: compound at 0.1 μM; for fold induction at 1 µM: compound at 1 μM; for fold induction at 10 µM: compound 10 μM. How it is done:
FIG. 4 represents Anti-CD3-induced IL-2 secretion in PBMCs. 1 μg/mL anti-CD3 (OKT-3) antibody in PBS coated onto 96-well plates overnight at 4° C. Approximately, 550,000 PBMCs were added to each well, followed by addition of DMSO only (control) or Compound 1. Induction was measured after 24 hrs as fold difference from the DMSO stimulated control.
(§1) Frozen primary blood mononuclear cells (PBMCs) were purchased from AllCells. Cells were quick thawed, washed once with RPMI-1640/10% FBS.
For the IL-2 analysis, 96 well plates were precoated with 1 μg/mL anti-human CD3 antibody (OKT3, eBioscience Inc.). After washing with PBS, Compound 1 was added (50 μL/well) followed by PBMCs diluted at 3-4 million cells/mL (150 μL/well). Plates were incubated for 24 hr and the supernatants collected for Mesoscale IL-2 analysis.
(§2) Compound activity was measured as fold difference from the DMSO control. IL-1β activity is shown in FIG. 1; IL-6 activity is shown in FIG. 2; TNFα activity is shown in FIG. 3; and IL-2 activity is shown in FIG. 4. Additional data for compounds (shown as percent inhibition) at 10 μM is shown in Table 1; at 1 μM in Table 2; and at 0.1 μM in Table 3.

The subject of another test is IL-6. Nature of the test: PBMC assay, LPS-induced IL-6 (Meso Scale). Particulars: Homo sapiens, PBMCs, 100 ng/mL LPS 18-24 hrs; for inhibition at 0.1 µM: compound at 0.1 μM; for inhibition at 1 µM: compound at 1 μM; for inhibition at 10 µM: compound at 10 μM. As for the experimental part: FIG. 2 represents the activity against IL-6 in peripheral blood mononuclear cells (PBMCs), plated in 96 well plates and pretreated with compound for 1 hour and then induced with 100 ng/mL LPS for 18-24 hrs. Cytokines were measured according to MesoScale protocol. Negative control wells were treated with DMSO. Compound activity was measured as a percentage of LPS-induced activity.
as §1
(§3) 1% Penicillin/1% Streptomycin and plated in 96 well plates at 200,000 cells per well. Cells were pretreated with DMSO only, or Compound 1 for 1 hour and then induced with 100 ng/mL lipopolysaccharide (LPS) for 18-24 hrs. The supernatant was analyzed for IL-1 beta, IL-6, and TNFα, using Meso Scale assay according to manufacturer's protocol. The negative control wells were treated with DMSO.
as §2

In the next test the test system is TNFα. Nature of the test: PBMC assay, LPS-induced TNFα (Meso Scale). Particulars: Homo sapiens, PBMCs, 100 ng/mL LPS 18-24 hrs; for inhibition at 0.1 µM: compound at 0.1 μM; for inhibition at 1 µM: compound at 1 μM; for inhibition at 10 µM: compound at 10 μM. As for the experimental part: FIG. 3 represents the activity against TNFα in peripheral blood mononuclear cells (PBMCs), plated in 96 well plates and pretreated with compound for 1 hour and then induced with 100 ng/mL LPS for 18-24 hrs. Cytokines in the media were measured according to MesoScale protocol. The negative control wells were treated with DMSO. Compound activity is measured as a percentage of LPS-induced activity.
as §1, §3, §2

In the next test the test system is Molm-13 cells. Nature of the test: Cell viability assay (CellTiter-Glo), Molm-13 proliferation. Particulars: Homo sapiens, MOLM-13, 72 h, 3 days. How it is done: (§4) Molm-13 and MV-4-11 cells were cultivated in RPMI-1640 (10% FBS/1% pen-strep) and were plated in white walled 96-well plates at 20,000 cells/well.
(§5) Cells were treated with compound at the indicated concentration or DMSO (control) and the cultures were incubated for 3 days at 37° C. and 5% CO2. Following the incubation period, 100 μL of CellTiterGlow (CTG) reagent (CellTiter-Glo® Luminescent Cell Viability Assay, Promega (Madison, Wis.)) was added to each well. Following a 10 min incubation with shaking, luminescence was measured using a Victor Wallac Luminometer.

Another test concerns MV-4-11 cells. Nature of the test: Cell viability assay (CellTiter-Glo), MV-4-11 proliferation. Particulars: Homo sapiens, MV4-11, 72 h, 3 days; for inhibition at 1 µM: compound at 1 μM; for inhibition at 10 µM: compound at 10 μM. How it is done: as §4, §5
Another test relates to IL-1β. Nature of the test: PBMC assay, LPS-induced IL-1β (Meso Scale). The following applies: Homo sapiens, PBMCs, 100 ng/mL LPS 18-24 hrs; for inhibition at 0.1 µM: compound at 0.1 μM; for inhibition at 1 µM: compound at 1 μM; for inhibition at 10 µM: compound at 10 μM. How it is done: FIG. 1 represents the activity against IL-1-beta in peripheral blood mononuclear cells (PBMCs), plated in 96 well plates and pretreated with compound for 1 hour and then induced with 100 ng/mL LPS for 18-24 hrs. Cytokines in the media were measured according to MesoScale protocol. Negative control wells were treated with DMSO. Compound activity is measured as a percentage of LPS-induced activity.
as §1, §3, §2

As for `O=C1CCC[C@H](N2Cc3c(OCc4ccc(CN5CCOCC5)cc4)cccc3C2=O)C(=O)N1` [Compound 1, (S)-3-(4-((4-(morpholinomethyl)benzyl)oxy)-1-oxoisoindolin-2-yl)azepane-2,7-dione], the fold induction at 0.1 µM in the test with IL-2 is 2.1. Further, the fold induction at 1 µM in the test with IL-2 amounted to 0.8. For the same molecule, the inhibition at 0.1 µM in the test on IL-6 stood at 63%; in the test with TNFα, 89%; in the test with Molm-13 cells (compound at 0.1 μM), 30%; with IL-1β, 83%. Besides, the inhibition at 1 µM in the test with IL-6 came to 71%; with TNFα it was 93%; with Molm-13 cells (compound at 1 μM), 15%; in the test with MV-4-11 cells, 2%; in the test with IL-1β it was 88%. In addition, the inhibition at 10 µM was 37% with Molm-13 cells (compound at 10 μM) and 5% with MV-4-11 cells.

As for `O=C1CCC[C@H](N2Cc3c(OCc4ccc(C5CCNCC5)cc4)cccc3C2=O)C(=O)N1` [Compound 4], in the test on IL-2, the fold induction at 0.1 µM amounted to 1.3 and the fold induction at 1 µM was determined as 2.3. In the test on IL-6, this molecule had an inhibition at 0.1 µM of 43% and an inhibition at 1 µM of 67%. Besides, in the test on TNFα, testing at 0.1 µM gave an inhibition of 81% and the inhibition at 1 µM came to 90%. In the test on MV-4-11 cells, this molecule gave an inhibition at 1 µM of 0% and an inhibition at 10 µM of 0%. Further, in the test on IL-1β, testing at 0.1 µM gave an inhibition of 72% and testing at 1 µM gave an inhibition of 86%.

For the molecule `O=C1CCC[C@H](N2Cc3c(OCc4ccc(CN5CCOCC5)cc4)cc(F)cc3C2=O)C(=O)N1` [Compound 7], in the test on IL-2, the fold induction at 0.1 µM was found to be 1 and the fold induction at 1 µM was found to be 1.1. This molecule also had an inhibition at 0.1 µM with IL-6 of 55%. In the test on TNFα, this molecule displayed an inhibition at 0.1 µM of 62%. Besides, in the test with MV-4-11 cells, 1 µM produced 0% inhibition and testing at 10 µM gave an inhibition of 0%. For the same molecule, testing at 0.1 µM in the test on IL-1β gave an inhibition of 71%.

As to `O=C1CCC[C@H](N2C(=O)c3cccc(OCc4ccc(CN5CCOCC5)cc4)c3C2=O)C(=O)N1` [Compound 11], the fold induction at 0.1 µM with IL-2 was 1.2. In the test on IL-2, the fold induction at 1 µM worked out at 1.9. For the same molecule, the inhibition at 0.1 µM was 12% with IL-6, 21% in the test with TNFα and 21% with IL-1β. Also, the inhibition at 1 µM in the test on MV-4-11 cells amounted to 0%. The molecule further gave an inhibition at 10 µM in the test on MV-4-11 cells of 0%.

Turning to `O=C1CCC[C@H](N2Cc3cc(OCc4ccc(CN5CCOCC5)cc4)ccc3C2=O)C(=O)N1` [Compound 15], the fold induction at 10 µM in the test on IL-2 was 2.1. Moreover, in the test on IL-2, the fold induction at 1 µM turned out to be 1.9. In addition, the inhibition at 1 µM in the test with IL-6 came to 10%; in the test with TNFα it was 65%; in the test on MV-4-11 cells, 38%; with IL-1β, 59%. The inhibition at 10 µM was 50% in the test with IL-6, 87% in the test on TNFα, 99% in the test on MV-4-11 cells and 81% with IL-1β.

Regarding `O=C1COC[C@H](N2Cc3c(OCc4ccc(CN5CCOCC5)cc4)cccc3C2=O)C(=O)N1` [Compound 16], the fold induction at 10 µM in the test with IL-2 stood at 0.2. In addition, the fold induction at 1 µM in the test on IL-2 is 0.7. Further, the inhibition at 1 µM in the test with IL-6 is 5%; with TNFα it was 27%; in the test on MV-4-11 cells, 0%; with IL-1β it was 24%. Besides, the inhibition at 10 µM was 78% with IL-6, 75% in the test with TNFα, 99% with MV-4-11 cells and 52% with IL-1β.

As for `Cc1cnc(Nc2ccc(OCCCNCC(=O)NCc3ccc(COc4cccc5c4CN(C4CCC(=O)NC4=O)C5=O)cc3)cc2)nc1Nc1cccc(S(=O)(=O)NC(C)(C)C)c1` (centres unmarked) [Compound 17], the fold induction at 10 µM in the test with IL-2 came out at 0.1. In addition, the fold induction at 1 µM in the test on IL-2 is 1.5. For the same molecule, the inhibition at 1 µM in the test with IL-6 was 35%; in the test on TNFα, 75%; with MV-4-11 cells, 31%; in the test on IL-1β it was 75%. The inhibition at 10 µM in the test on IL-6 is 100%; in the test on TNFα, 100%; in the test with MV-4-11 cells it was 98%; in the test on IL-1β, 100%.

Consider `N#Cc1ccc2c(c1OCc1ccc(CN3CCOCC3)cc1)CN([C@H]1CCCC(=O)NC1=O)C2=O` [Compound 19, 2-[(S)-2,7-Dioxo-3-azepanyl]-4-{[p-(morpholinomethyl)phenyl]methoxy}-1-oxo-5-isoindolinecarbonitrile], for which, in the test on IL-2, the fold induction at 0.1 µM turned out to be 1.5 and the fold induction at 1 µM turned out to be 2.4. Further, in the test on IL-6, at 0.1 µM the inhibition was 12% and testing at 1 µM gave an inhibition of 43%. In the test on TNFα, this molecule yielded an inhibition at 0.1 µM of 41% and an inhibition at 1 µM of 73%. Further, in the test on MV-4-11 cells, the inhibition at 1 µM is 0% and the inhibition at 10 µM is 0%. In addition, in the test on IL-1β, the inhibition at 0.1 µM was 22% and the inhibition at 1 µM came out at 65%.

In the case of `Cc1cnc(Nc2ccc(OCCCNCC(=O)NCc3ccc(COc4cc(F)cc5c4CN([C@H]4CCCC(=O)NC4=O)C5=O)cc3)cc2)nc1Nc1cccc(S(=O)(=O)NC(C)(C)C)c1` [Compound 21], the fold induction at 10 µM with IL-2 is 1. Besides, the fold induction at 1 µM in the test on IL-2 was 0.9. The inhibition at 1 µM worked out at 8% in the test on IL-6, 20% in the test on TNFα, 0% with MV-4-11 cells and 6% with IL-1β. Further, the inhibition at 10 µM turned out to be 7% in the test with IL-6, 30% with TNFα, 97% in the test on MV-4-11 cells and 11% in the test with IL-1β.

As for `Cc1cnc(Nc2ccc(OCCCNCC(=O)NCc3ccc(COc4cccc5c4CN([C@H]4CCC(=O)NC4=O)C5=O)cc3)cc2)nc1Nc1cccc(S(=O)(=O)NC(C)(C)C)c1` [Compound 24], the fold induction at 10 µM in the test on IL-2 came to 1. In the test with IL-2, the fold induction at 1 µM turned out to be 1. The inhibition at 1 µM with IL-6 stood at 9%; in the test with TNFα, 10%; with MV-4-11 cells, 44%; with IL-1β, 7%. For the same molecule, the inhibition at 10 µM with IL-6 worked out at 1%; with TNFα it was 23%; with MV-4-11 cells, 80%; with IL-1β, 23%.

As for `Cc1cnc(Nc2ccc(OCCCNCC(=O)NCc3ccc(COc4cc(F)cc5c4CN([C@H]4CCC(=O)NC4=O)C5=O)cc3)cc2)nc1Nc1cccc(S(=O)(=O)NC(C)(C)C)c1` [Compound 25], in the test with IL-2, the fold induction at 0.1 µM came to 0.9 and the fold induction at 1 µM is 1. In the test on IL-6, this molecule displayed an inhibition at 0.1 µM of 3% and an inhibition at 1 µM of 32%. Besides, in the test with TNFα, the inhibition at 0.1 µM is 13% and the inhibition at 1 µM turned out to be 25%. In the test on MV-4-11 cells, the inhibition at 1 µM came out at 54% and the inhibition at 10 µM stood at 90%. Also, in the test on IL-1β, the inhibition at 0.1 µM amounted to 0% and at 1 µM the inhibition was 8%.
